Source: paper PMC2217055 (The Journal of General Physiology, 1997)

Key:
[1] = target: T1, rat olfactory CNG channel subunit 1 (Rattus norvegicus, UniProt Q00195); experiment: inside-out patch clamp, cGMP dose-response of current; format: cell-based
T1 sequence (Q00195 1-664): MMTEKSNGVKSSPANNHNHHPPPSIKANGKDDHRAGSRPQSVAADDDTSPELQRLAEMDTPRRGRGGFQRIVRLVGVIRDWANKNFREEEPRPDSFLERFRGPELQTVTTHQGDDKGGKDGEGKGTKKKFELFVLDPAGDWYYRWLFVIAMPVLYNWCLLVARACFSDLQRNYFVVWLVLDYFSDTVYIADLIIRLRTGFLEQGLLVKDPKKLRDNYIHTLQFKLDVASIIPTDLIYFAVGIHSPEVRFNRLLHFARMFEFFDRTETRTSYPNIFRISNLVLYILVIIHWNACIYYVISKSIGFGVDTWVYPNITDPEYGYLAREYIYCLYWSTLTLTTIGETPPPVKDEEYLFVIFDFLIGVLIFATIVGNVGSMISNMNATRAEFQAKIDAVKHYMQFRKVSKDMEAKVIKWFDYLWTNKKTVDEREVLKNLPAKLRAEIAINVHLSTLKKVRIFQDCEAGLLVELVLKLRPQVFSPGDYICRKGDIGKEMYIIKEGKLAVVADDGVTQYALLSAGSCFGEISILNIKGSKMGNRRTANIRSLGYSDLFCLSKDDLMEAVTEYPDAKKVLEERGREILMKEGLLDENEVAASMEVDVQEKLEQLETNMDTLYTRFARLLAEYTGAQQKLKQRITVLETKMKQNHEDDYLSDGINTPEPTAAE

[2] = target: T1, rat olfactory CNG channel subunit 1; experiment: inside-out patch clamp, oocytes, Michaelis-Menten fit of block; format: cell-based

Row | SMILES | EC50 [1] | IC50 [2]
1 | Nc1nc2c(ncn2[C@@H]2O[C@@H]3COP(=O)(O)O[C@H]3[C@H]2O)c(=O)[nH]1 [cGMP] | 2.1 ± 0.12 µM | 
2 | CCCCNc1ccc(C(=O)OCCN(C)C)cc1 [tetracaine] |  | 170 ± 22 µM
